Patent US5494813A, “Nematode control with proteinase inhibitors” (Nickerson Biocem Limited, priority 1991, dated 1996)
Entries after “also recorded” stand apart in the source; their conditions may differ.

Columns and labels:
[1] = system: proteolytic activity of the 5HT-induced exudate from J2; experiment: Proteolytic activity of the 5HT-induced exudate from J2 of G. pallida (biotin/gelatin microtitre plate assay); type: biochemical, Globodera pallida; details: for Relative Activity (% of controls at that pH), pH 5 / Relative Activity (% of controls at that pH), pH 6.8: CpTi 10 μg/ml, rice preparations 30 μg/ml, other concentrations not given; for Relative Activity (% of controls at that pH), pH 6.8: maize preparation 20 μg/ml
Method: Freshly hatched juveniles of G. pallida were incubated in 2.5 mM 5'hydroxytryptamine in water at 20° C. for 4 h. This caused material to exude from the mouth which can be visualized at the mouth by allowing the protein stain Ponceau S to diffuse through a small aliquot of the experimental sample containing the nematodes under a microscope slide and coverslip. Worms were removed from the medium by centrifugation at 3000 g for 2 min before the fluid was dialyzed at 4° C. against distilled water overnight. The material was freeze-dried in aliquots at -70° C. until use and reconstituted to 2.5 μg protein/ml dH2 O at 5° C. immediately before use. Assays were carried out in a reaction mixture prepared by mixing 50 μl of this solution with 20 μl of either 100 mM phosphate buffer at pH 6.8 or 100 mM titrate/phosphate buffer at pH 5 plus either 10 μl of the inhibitor under test at the concentrations given in Table 7 or dH2 O for corresponding control rates for the uninhibited exudate.
The assays were carried out by coating microtitre plates (NUNC) with 50 μl of 0.01 μg/ml biotin/gelatin in carbonate buffer (pH 9.6) overnight at 4° C. The plates were blocked with 1% gelatin and washed with PBS before adding 75 μl of freshly prepared reaction mixture for 18 h. The reaction was stopped by washing wells eight times with PBS-tween before adding 100 μl of avidin-conjugated alkaline phosphatase with 1% goat serum to each well for 1 h. The wells were washed as before with PBS-tween followed by 2 rinses in PBS before addition of 100 μl of 1 mg/ml P-nitrophenyl phosphate in substrate buffer (10% diethanolamine and 0.5 mM MgCl2) at pH 9.8. The color development was read at 405 nm using a plate reader (Biorad). All samples were compared against a reference blank which lacked nematode exudate preparation in the reaction mixture.

[2] = system: endoproteinase activity of G. pallida; experiment: Endoproteinase activity of G. pallida female homogenate on RUBISCO with inhibitors/activators (SDS-PAGE densitometry); type: biochemical, Globodera pallida; details: RUBISCO substrate; for % enzyme activity: pH 5.7, 25 C, mean ± SEM, control 100 ± 7, 30 min
Method: Females of G. pallida were removed from potato roots and homogenised in EDTA (1 mm)-NaOH buffered distilled water (pH 6.0). The nematode homogenate was clarified by centrifugation at 13,000 g for 2 min and passed through non-absorbent cotton wool. The filtrate was used directly as the source of crude proteinases. pH was controlled using 0.1M of citrate-phosphate, sodium-phosphate and phosphate-carbonate buffers for pH 3.0-6.0, pH 6.5-7.5 and 8.0-8.5 respectively. These buffers were mixed with equal volume of the nematode homogenate and RUBISCO (150 μg) in 0.04% SDS resulting in a final reaction volume of 75 μl . […] The tubes were kept on ice for 30 min for full precipitation to occur. The supernatant was clarified by centrifugation (13,000 g, 2 min). The liberation of TCA-soluble amino groups from digested RUBISCO was used to quantify the proteolytic activity of nematode homogenates using 2, 4,6-trinitrobenzsulphonic acid (TNBS). TNBS reagent was made by mixing one volume of 0.3% (w/v) TNBS in water with four volume of 4% (w/v) sodium tetraborate in 0.15M NaOH. 250 μl of the reagent was mixed with 75 μl of sample and the reaction was allowed to proceed for 60 min at 30° C. before terminating by adding […] of 0.5M HCl. The absorbance at 340 nm was read against both homogenate and RUBISCO controls. Results are expressed as nmol of TCA-soluble amino groups liberated per min at 25° C. using a standard curve based on L-leucine in CP buffer.
Subsequent work was based on pH 5.7 using CP buffer. Females of G. pallida were rinsed in 50 mM CP buffer plus 1 mM EDTA and homogenised in ice-cold 50 mM CP buffer, centrifuging and filtering as before. The EDTA wash step was omitted for experiments using inhibitors or activators (see below).
25 μl of RUBISCO (from a stock solution in CP buffer of 1 mg/ml containing 0.04% SDS) was added to 20 μl of the sample homogenate and either 5 μl CP buffer or 5 μl of inhibitor/activator. After incubation for 60 min, the reaction was stopped by adding 30 μl of denaturing buffer and boiling for 2.5 min.
Stock inhibitor and activator solutions (Table 3) were made up in buffer and added to the nematode extract. The inhibitor/activator was pre-incubated with the enzyme solutions for 30 min at 25° C. before addition to the protein substrate
The gel was stained using Coomassie Brilliant Blue.
In order to elucidate the effect of activators and inhibitors on the proteolytic activity of nematode proteinase(s), RUBISCO was treated with the extract at 25 C. at a substrate protein-nematode protein ratio (w/w) of 8. After a 30 min incubation, the reaction mixture was terminated and analysed by SDS-PAGE. The RUBISCO substrate band in the gel was quantified densitometrically (Joyce Loble Chromscan 3), and the amount of protein remaining gave an estimation of the rate of activity of the proteinase.

Compound	Effect on proteolytic activity of the exudate at pH 5 (in words) [1]	Relative Activity (% of controls at that pH), pH 5 [1]	Relative Activity (% of controls at that pH), pH 6.8 ([1]; pH 6.8)	Effect on endoproteinase activity (in words) ([2]; pH 5.7)	% enzyme activity [2]	Inhibition of proteolytic activity ([2]; pH 5.7)	Effect on proteolytic activity of the exudate at pH 6.8 (in words) ([1]; pH 6.8)
N[C@@H](CS)C(=O)O [Cys, cysteine]	stimulated	> 100%	100%	stimulated	112 ± 5%	–	–
OC(CS)C(O)CS (centres unmarked) [DTT]	–	–	–	stimulated	128 ± 11%	–	–
CC(C)C[C@H](NC(=O)[C@H]1O[C@@H]1C(=O)O)C(=O)NCCCCN=C(N)N [E-64, L-trans-epoxysuccinyl-leucylamide-(4-guanidino)-butane]	inhibited	0%	5%	–	79 ± 6%	21%	–
O=C(O)CN(CCN(CC(=O)O)CC(=O)O)CC(=O)O [EDTA]	stimulated	> 100%	93%	–	–	–	inhibited
CC(=O)[O][Hg][c]1ccccc1 [PMA]	–	–	–	almost total inhibition	11 ± 6%	–	–
p-aminomercuribenzoate [PAMBA]	–	–	–	potent inhibitor; also recorded: almost total inhibition	3 ± 4%	–	–
